Test results reported in patent publication US9149038B2, “4-amino-6-(heterocyclic)picolinates and 6-amino-2-(heterocyclic)pyrimidine-4-carboxylates and their use as herbicides” (Dow AgroSciences LLC, priority 2013, dated 2015).
Where two headings read alike, the source gives them in different places.

Tests used:
[1] = test system: Key Grass and Sedge Weeds as well as Grass Crops; experiment: Post-Emergent Test II: postemergent herbicidal activity, visual rating after 14 d (Table 8); assay type: in vivo; conditions: post-emergence, 336 h; for pest or weed control at 35 g/ha: 35 g ai/ha; for pest or weed control at 70 g/ha: 70 g ai/ha; for pest or weed control at 140 g/ha: 140 g ai/ha
Outline: (§1)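 Post-emergence foliar spray, 187 L/ha, first/second true leaf stage plants in potting mix (pH 6.0-6.8). Rates: top rate and 2-fold serial dilutions to 1/16×. Solvent-blank controls. Readout: visual % kill at 14 d.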

[2] = test system: Key Broadleaf Weed and Crop Species; experiment: Post-Emergent Test II: postemergent herbicidal activity, visual rating after 14 d (Table 7); assay type: in vivo; conditions: post-emergence, 336 h; for pest or weed control at 35 g/ha: 35 g ai/ha; for pest or weed control at 70 g/ha: 70 g ai/ha; for pest or weed control at 140 g/ha: 140 g ai/ha
Outline: as §1

[3] = barnyardgrass (Echinochloa crus-galli), read-out: Visual Growth Reduction (%) 14 Days After Application, ECHCG
[4] = giant foxtail (Setaria faberi), read-out: Visual Growth Reduction (%) 14 Days After Application, SETFA
[5] = maize, corn (Zea mays), read-out: Visual Growth Reduction (%) 14 Days After Application, ZEAMX
[6] = rice (Oryza sativa), read-out: Visual Growth Reduction (%) 14 Days After Application, ORYSA
[7] = wheat, spring (Triticum aestivum), read-out: Visual Growth Reduction (%) 14 Days After Application, TRZAS
[8] = yellow nutsedge (Cyperus esculentus), read-out: Visual Growth Reduction (%) 14 Days After Application, CYPES
[9] = ABUTH: velvetleaf (Abutilon theophrasti), read-out: Visual Growth Reduction (%) 14 Days After Application ABUTH
[10] = AMARE: redroot pigweed (Amaranthus retroflexus), read-out: Visual Growth Reduction (%) 14 Days After Application AMARE
[11] = BRSNN: oilseed rape, canola (Brassica napus), read-out: Visual Growth Reduction (%) 14 Days After Application BRSNN
[12] = CHEAL: lambsquarters (Chenopodium album), read-out: Visual Growth Reduction (%) 14 Days After Application CHEAL
[13] = EPHHL: wild poinsettia (Euphorbia heterophylla), read-out: Visual Growth Reduction (%) 14 Days After Application EPHHL
[14] = HELAN: sunflower (Helianthus annuus), read-out: Visual Growth Reduction (%) 14 Days After Application HELAN

Row | SMILES | pest or weed control at 35 g/ha [1, 3] | pest or weed control at 70 g/ha [1, 3] | pest or weed control at 140 g/ha [1, 3] | pest or weed control at 35 g/ha [1, 4] | pest or weed control at 70 g/ha [1, 4] | pest or weed control at 140 g/ha [1, 4] | pest or weed control at 35 g/ha [1, 5] | pest or weed control at 70 g/ha [1, 5] | pest or weed control at 140 g/ha [1, 5] | pest or weed control at 35 g/ha [1, 6] | pest or weed control at 70 g/ha [1, 6] | pest or weed control at 140 g/ha [1, 6] | pest or weed control at 35 g/ha [1, 7] | pest or weed control at 70 g/ha [1, 7] | pest or weed control at 140 g/ha [1, 7] | pest or weed control at 35 g/ha [1, 8] | pest or weed control at 70 g/ha [1, 8] | pest or weed control at 140 g/ha [1, 8] | pest or weed control at 35 g/ha [2, 9] | pest or weed control at 70 g/ha [2, 9] | further results
1 | COC(=O)c1nc(-c2cccc3c2OCO3)cc(N)c1Cl [Compound 93] | 0 to 29% | 0 to 29% | 0 to 29% | 0 to 29% | 0 to 29% | 0 to 29% | 0 to 29% | 0 to 29% | 0 to 29% | 0 to 29% | 0 to 29% | 0 to 29% | 0 to 29% | 0 to 29% | 0 to 29% | 0 to 29% | 0 to 29% | 0 to 29% | 0 to 29% | 0 to 29% | pest or weed control at 140 g/ha [2, 9]: 45 to 59%; pest or weed control at 35 g/ha [2, 10]: 0 to 29%; pest or weed control at 70 g/ha [2, 10]: 0 to 29%; pest or weed control at 140 g/ha [2, 10]: 60 to 74%; pest or weed control at 35 g/ha [2, 11]: 0 to 29%; pest or weed control at 70 g/ha [2, 11]: 30 to 44%; pest or weed control at 140 g/ha [2, 11]: 60 to 74%; pest or weed control at 35 g/ha [2, 12]: 60 to 74%; pest or weed control at 70 g/ha [2, 12]: 75 to 84%; pest or weed control at 140 g/ha [2, 12]: 95 to 100%; pest or weed control at 35 g/ha [2, 13]: 0 to 29%; pest or weed control at 70 g/ha [2, 13]: 0 to 29%; pest or weed control at 140 g/ha [2, 13]: 0 to 29%; pest or weed control at 35 g/ha [2, 14]: 45 to 59%; pest or weed control at 70 g/ha [2, 14]: 60 to 74%; pest or weed control at 140 g/ha [2, 14]: 75 to 84%
2 | COC(=O)c1nc(-c2ccc(F)c3c2OCO3)nc(N)c1OC [Compound 97] | 0 to 29% | 0 to 29% | 0 to 29% | 0 to 29% | 0 to 29% | 0 to 29% | 0 to 29% | 0 to 29% | 0 to 29% | 0 to 29% | 0 to 29% | 0 to 29% | 0 to 29% | 0 to 29% | 0 to 29% | 0 to 29% | 0 to 29% | 0 to 29% | 0 to 29% | 0 to 29% | pest or weed control at 140 g/ha [2, 9]: 0 to 29%; pest or weed control at 35 g/ha [2, 10]: 0 to 29%; pest or weed control at 70 g/ha [2, 10]: 0 to 29%; pest or weed control at 140 g/ha [2, 10]: 0 to 29%; pest or weed control at 35 g/ha [2, 11]: 0 to 29%; pest or weed control at 70 g/ha [2, 11]: 0 to 29%; pest or weed control at 140 g/ha [2, 11]: 0 to 29%; pest or weed control at 35 g/ha [2, 12]: 60 to 74%; pest or weed control at 70 g/ha [2, 12]: 85 to 94%; pest or weed control at 140 g/ha [2, 12]: 60 to 74%; pest or weed control at 35 g/ha [2, 13]: 0 to 29%; pest or weed control at 70 g/ha [2, 13]: 0 to 29%; pest or weed control at 140 g/ha [2, 13]: 0 to 29%; pest or weed control at 35 g/ha [2, 14]: 60 to 74%; pest or weed control at 70 g/ha [2, 14]: 75 to 84%; pest or weed control at 140 g/ha [2, 14]: 85 to 94%
